Test results as given in publication PMC11738990, “A small-molecule TNIK inhibitor targets fibrosis in preclinical and clinical models” (Nature Biotechnology, 2024).
Where “and” joins values, the source holds several entries; their conditions need not be identical. Identical values can stand only once.

Tests used:
Sprague Dawley rats = experiment: Bleomycin-induced skin scarring model; format: in vivo, rat; conditions: 0.05% topical
Experimental: Animals were anesthetized using isoflurane. Using a 1-ml syringe containing a 27-gauge needle, 100 µl bleomycin (1 mg ml^−1 in PBS) solution was injected subcutaneously into two sites on the shaved dorsal regions, QD for 4 weeks. Rats in the naive control group were injected daily with an equivalent volume of sterile PBS. […] After 4 weeks of treatment, animals were killed with CO2, and skin was collected.
Hydroxyproline and collagen concentrations were normalized to total protein content using the Bradford method.

healthy subjects [1] = conditions: in vivo
[2] = test system: primary bronchial epithelial cells from healthy donors; experiment: EMT by FN1, high-content analysis; format: cell-based, human; conditions: three healthy individuals
Experimental: For the measurement of EMT by FN1, on the first day, human primary bronchial epithelial cells were seeded. After 2 d, the medium of the cells was refreshed. […] After 1 h, all cells were treated with 5 ng ml^−1 TGF-β1. On the ninth day (72 h after triggering), cells were fixed with 4% formaldehyde, stained for FN1 and with DAPI and then imaged and quantified via HCA (IN Cell Analyzer 2200, GE Healthcare).
Segmentation and quantification of α-SMA and FN1 immunoreactivity was carried out with an HCA algorithm, with density × area (D × A) output. Data normalization of raw α-SMA or FN1 (D × A) to percent inhibition values was performed on a plate-to-plate basis.
[…]
μp is the average α-SMA or FN1 value of the positive control (TGF-β1 + 1 μM SB525334). μn is the average α-SMA or FN1 value of the vehicle control (TGF-β1 + 0.1% DMSO). Xi is the compound α-SMA or FN1 value. IC50 values for all compounds (if calculable, based on the point of inflection) were calculated with GraphPad Prism using non-linear fit of log (inhibitor) versus response (four parameter).
DAPI fluorescence was applied for HCA-based quantification of the number of imaged cells on a plate-to-plate basis.
Percent remaining cells = (Xi/μn) × 100%
μn is the average number of nuclei of the vehicle control (TGF-β1 + 0.1% DMSO). Xi is the compound number of nuclei.

mice = conditions: male mice, 180 mg/kg daily; ref Insilico Medicine, 2021; cited from earlier work
healthy subjects [3] = experiment: Phase I New Zealand safety (NCT05154240); conditions: n (%) [E]
C57BL/6 mice = experiment: Bleomycin-induced lung fibrosis model; format: in vivo, mouse; conditions: for HE staining (inflammation area) / IL-1beta in BALF / IL-6 in BALF / monocytes, cell count in BALF / neutrophils, cell count in BALF / Lung function (Penh) / Masson Trichrome's staining / Modified Ashcroft Score / collagen I / α-SMA: individual animals; for Lung function (Penh) / Masson Trichrome's staining / Modified Ashcroft Score / collagen I / α-SMA: Fig 3B-C
Experimental: Mice received bleomycin on day 1 at a dose of 0.66 mg per kg (equivalent to 1 U per kg), in a volume of 50 μl by intratracheal administration, or received saline (sham group). On day 7, dosing with the corresponding compounds was started. The vehicle group (group 1) was treated with 0.5% methylcellulose BID. […] On days 5 and 21, lung function measurement was performed. On day 28, all animals were killed, and blood and tissue samples were collected along with BALF.
Lung function was measured according to the HDB standard protocol. Expiratory time, relaxation time, peak expiratory flow and peak inspiratory flow were collected and used to calculate Penh data.
Mice were first anesthetized with Zoletil–xylazine (50 mpk and 10 mpk, i.p.). Next, a 1.5–2-cm longitudinal incision was made on the ventral side of the neck to expose the trachea by blunt dissection, and curved forceps were placed underneath the trachea. A 10–12-cm piece of suture was then threaded underneath the trachea using forceps. The ends of the suture were then pulled cranially to ‘stretch’ the trachea toward the surgeon. A 20-G needle was then used to poke a hole in the trachea as close to the larynx as possible. A 22-G blunt stainless steel needle connected to PE tubing was placed in the hole and inserted approximately 5–8 mm into the trachea. The cannula was secured in the trachea by tying the suture around it with an overhand knot. A 1-ml syringe containing 0.4 ml saline was gently pushed forward and backward three times to recover BALF fluid. BALF was transferred into empty tubes and stored on ice. This process was repeated twice with 0.3 ml saline for a total volume of 1 ml.
Total cell numbers were counted with a standard hemocytometer by mixing 20 μl BALF with 20 μl trypan blue. Cytospins were prepared by cytocentrifugation using Cytospins at 106g for 5 min, and then smears of BALF cells were stained with Diff-Quick stain. Cell differentiation was performed by counting at least 400 cells using standard hemocytologic criteria to classify them as alveolar macrophages or monocytes, neutrophils, eosinophils or lymphocytes. The rest of the BALF fluid was centrifuged, and supernatants were collected and stored at −80 °C for cytokine, chemokine and total protein analysis.
From the collected BALF, concentrations of cytokines were measured from mice in groups 2–7 killed on day 28. Mouse BALF cytokines and chemokines were measured using the ELISA Analysis Kit (Sinobest Bio). Mouse BALF soluble collagen was measured using the Soluble Collagen kit (Biocolor). Mouse lung hydroxyproline content was measured using the Hydroxyproline Assay Kit (Njjcbio).
Left lung lobes were removed from each mouse and fixed in 10% NBF solution, embedded in paraffin and processed to obtain 4-μm sections for staining with H&E. H&E-stained slides were scanned using an Aperio ScanScope Model CS2 (Leica) at ×200 magnification. Images were then opened in the HALO Plus 5 workstation (version 2.3, Indica Labs) program. Using the pen annotation tool, the whole-lung section was selected as an annotation layer. The area of vessels was defined as background using the exclusion drawing tool. The total inflammation area was quantified by selecting the dark blue inflammation cells using the pen annotation tool manually. The percentage of H&E staining (inflammation area/total area of the lung) in the selected annotation was then calculated using the program.
Masson’s trichrome staining was conducted using a ready-to-use kit (Trichrome Stain (Masson) Kit, HT15, Sigma-Aldrich) as described by the manufacturer.
Lung sections were cut at a thickness of 4 μm, dried in an oven for 1 h and stained with M&T using our standard protocol.

[4] = test system: primary bronchial epithelial cells from donors with IPF; experiment: EMT by FN1, high-content analysis; format: cell-based, human; conditions: three donors with IPF
Excerpt: Percent inhibition = (100 − (μp − Xi)/(μp − Xn)) × 100

[5] = G2 INS018_055 3mpk BID, 3 mg/kg
[6] = G3 INS018_055 10mpk BID, 10 mg/kg
[7] = G4 INS018_055 30mpk BID, 30 mg/kg

## CC(C)n1cnc(-c2ccc(F)cc2)c1-c1nc(C(=O)Nc2ccc(N3CCN(C)CC3)cc2)c[nH]1 [INS018_055, 2-[4-(4-fluorophenyl)-1-(prop-2-yl)imidazol-5-yl]-N-[4-(4-methylhexahydropyrazin-1-yl)phenyl]-1H-imidazole-4-carboxamide]
Sprague Dawley rats
  Hydroxyproline in skin: 1036.36 and 1122.01 and 1193.18 and 833.714 and 660.98
  Total collagen in skin: 114.74 and 120.73 and 157.27 and 80.17 and 90.17
Healthy subjects [1]
  Abdominal pain: 1 (5.6) [1]
  Alanine aminotransferase increased: 1 (5.6) [1]
  Alopecia: 0 [0]
  Any SAE: 0 [0]
  Any Severe TEAE: 0 [0]
  Any Treatment-Related Moderate TEAE: 0 [0]
  Any Treatment-Related SAE: 0 [0]
  Any Treatment-Related Severe TEAE: 0 [0]
  Aphthous ulcer: 1 (5.6) [1]
  Aspartate aminotransferase increased: 1 (5.6) [1]
  Back pain: 1 (5.6) [1]
  Blood creatine phosphokinase increased: 1 (5.6) [1]
  Catheter site bruise: 1 (5.6) [1]
  Catheter site inflammation: 1 (5.6) [1]
  Catheter site pain: 0 [0]
  Catheter site swelling: 1 (5.6) [1]
  Constipation: 1 (3.3) [1]
  Cough: 1 (3.3) [1]
  Diarrhoea: 1 (5.6) [1]
  Gastrointestinal disorder: 0 [0]
  Immune system disorders: 1 (5.6) [1]
  Lymph node palpable: 1 (5.6) [1]
  Medical device site irritation: 2 (6.7) [2]
  Nasal congestion: 1 (5.6) [1]
  Nausea: 1 (5.6) [1]
  Nightmare: 1 (5.6) [1]
  Paraesthesia: 0 [0]
  Phlebitis: 3 (10.0) [3]
  Pruritus: 1 (5.6) [1]
  Psychiatric disorders: 1 (5.6) [1]
  Rhinorrhoea: 0 [0]
  Seasonal allergy: 1 (5.6) [1]
  Skin mass: 1 (5.6) [1]
  Syncope: 1 (3.3) [1]
  Urticaria: 0 [0]
  Vascular disorders: 3 (10.0) [3]
[2]
  IC50: 63 nM (2×) and 500 nM
mice
  reduction of erythrocyte count: 19.8%
Healthy subjects [3]; MAD any dose N=18
  Any Death: 0 [0]
Healthy subjects [3]; SAD any dose N=30
  Any Death: 0 [0]
C57BL/6 mice; 3 mg per kg BID
  reduction in fibrotic area vs vehicle: over 50%
C57BL/6 mice; 10 mg per kg BID
  reduction in fibrotic area vs vehicle: more than 75%
C57BL/6 mice; 30 mg per kg BID
  reduction in fibrotic area vs vehicle: more than 75%
C57BL/6 mice; 3mpk BID
  HE staining (inflammation area): 16.35 and 17.87 and 12.71 and 1.09 and 10.2 and 19.47 and 0.4 and 43.83 and 48.17 and 4.33
  IL-1beta in BALF: 154.02 and 147.65 and 144.47 and 164.21 and 155.93 and 168.67 and 177.59
  IL-6 in BALF: 126.67 and 118.83 and 123.05 and 144.15 and 121.24 and 147.77 and 123.65 and 122.44 and 139.33
  monocytes, cell count in BALF: 48000 and 77000 and 128800 and 211900 and 99500 and 150400 and 143100 and 79600 and 62000
  neutrophils, cell count in BALF: 31200 and 500 and 700 and 0 and 1000
C57BL/6 mice; 10mpk BID
  HE staining (inflammation area): 21.7 and 0.11 and 5.58 and 22.87 and 0.24 and 8.94 and 0.45 and 42.15 and 0.46 and 0.26
  IL-1beta in BALF: 241.92 and 204.98 and 199.25 and 226 and 212.62 and 229.18 and 207.53 and 202.43 and 189.69 and 227.91
  IL-6 in BALF: 201.44 and 191.8 and 156.22 and 187.57 and 178.53 and 200.84 and 157.42 and 203.86 and 172.5
  monocytes, cell count in BALF: 40000 and 80000 and 116200 and 4200 and 172000 and 84000 and 29600 and 114100 and 79200 and 38100
  neutrophils, cell count in BALF: 500 and 0 and 200 and 700
C57BL/6 mice; 30mpk BID
  HE staining (inflammation area): 48.7 and 0.62 and 0.2 and 3.2 and 0.42 and 0.24 and 10.41 and 0.95 and 7.2 and 3.59
  IL-1beta in BALF: 205.62 and 188.42 and 203.7 and 211.35 and 200.52 and 228.54 and 189.06 and 180.78 and 190.33 and 224.09
  IL-6 in BALF: 147.17 and 151.39 and 139.93 and 159.83 and 139.33 and 174.91 and 170.69 and 171.9 and 168.28
  monocytes, cell count in BALF: 53400 and 20000 and 196300 and 26700 and 124800 and 27500 and 26500 and 61600 and 54600
  neutrophils, cell count in BALF: 0 and 400 and 1300 and 900
C57BL/6 mice; [5]
  Lung function (Penh): 0.6758 and 0.6536 and 0.6784 and 0.8035 and 0.7941 and 0.8536 and 2.1862 and 0.7195 and 0.614 and 0.4863 and 3.086 and 0.8355 and 0.9151
  Masson Trichrome's staining: 13.42 and 12.85 and 13.06 and 0.67 and 7.67 and 20.55 and 0.21 and 52.81 and 60.17 and 6.1
  Modified Ashcroft Score: 4.5 and 1.5 and 6 and 3.25
  collagen I: 1.64 and 0.35 and 0.02 and 1.98 and 3.34 and 1.23 and 0.25 and 0.51 and 0.22 and 0.32
  α-SMA: 0.37 and 0.33 and 0.09 and 0.57 and 0.58 and 0.29
C57BL/6 mice; [6]
  Lung function (Penh): 0.921 and 0.5921 and 0.7137 and 3.621 and 0.8031 and 0.5775 and 0.6428 and 0.5842 and 0.678 and 0.5758 and 0.618 and 0.6177 and 0.711
  Masson Trichrome's staining: 19.44 and 0.05 and 6.38 and 17.98 and 0.22 and 11.46 and 0.26 and 36.84 and 1 and 0.45
  Modified Ashcroft Score: 1.25 and 2.5 and 0.75 and 3 and 4.5 and 0.25
  collagen I: 0.04 and 2.29 and 0.08 and 0.17 and 0.07 and 0.11 and 0.36 and 0.22 and 2.99 and 3.49
  α-SMA: 0.2 and 0.91 and 0.22 and 0.38 and 0.09 and 0.78 and 0.06 and 0.41 and 2.61
C57BL/6 mice; [7]
  Lung function (Penh): 0.81 and 0.4773 and 0.7792 and 0.5085 and 0.4976 and 0.9972 and 0.6276 and 0.4738 and 0.7711 and 0.8367 and 0.5642 and 0.8492 and 0.6495
  Masson Trichrome's staining: 54.82 and 0.37 and 1.9 and 3.57 and 0.51 and 0.16 and 12.49 and 1.77 and 9.46 and 7.1
  Modified Ashcroft Score: 1.5 and 3 and 6
  collagen I: 0.43 and 0.13 and 2.32 and 1.69 and 1.28 and 0.07 and 1.12 and 0.03 and 0.15 and 0.02
  α-SMA: 0.1 and 0.05 and 0.38 and 0.09 and 0.73 and 0.22 and 0.72 and 0.11 and 0.15 and 0.18
[4]
  IC50: 250 nM and 320 nM and 400 nM
